Patent US20250049967A1, “PET TRACERS FOR V[…] GAMMA1 RECEPTORS” (Hoffmann-La Roche Inc., priority 2022, published 2025)

Key:
[1] = target: human GABAA α1β3γ2 receptor (Homo sapiens (Human), UniProt P14867+P18507); experiment: Binding assay, competition for [^3H]Flumazenil, HEK293F cells; settings: for γ2/γ1 Selectivity Ratio: Ki α1β3γ2 (nM)/Ki α2β2γ1 (nM)
Protocol: The affinity of compounds at GABAA γ2 subunit-containing receptors was measured by competition for [^3H]Flumazenil (81.1 Ci/mmol; Roche) binding to HEK293F cells expressing human (transiently transfected) receptors of composition α1β3γ2.
Harvested pellets from HEK293F cells expressing the different GABAA γ2 receptor subtypes were resuspended in Mannitol Buffer pH 7.2-7.4 and processed as described above for the cells expressing the GABAA γ1 subunit-containing receptors.
Assays were incubated to equilibrium for 1 hour at 4° C. and harvested onto GF/C uni-filters (Packard) by filtration using a Packard harvester and washing with ice-cold wash buffer (50 mM Tris; pH 7.5). After anhydrousing, filter-retained radioactivity was detected by liquid scintillation counting. Ki values were calculated using Excel-Fit (Microsoft) and are the means of two determinations.

h-GABA-A α2β2γ1 receptor = h-GABA-A α2β2γ1 receptor (Homo sapiens (Human), UniProt P47869+Q8N1C3); experiment: Xenopus oocyte two-electrode voltage clamp electrophysiology, modulation of GABA EC20 current; assay type: cell-based; settings: for Efficacy (GABA)%: % modulation of GABA EC20 = 100*(Fold increase−1), compound at 30-fold Ki α2β2γ1; for Potentiation of GABA-induced current in α2β2γ1 expressing oocytes: reference PAMs, GABA EC20
Protocol: Xenopus laevis oocytes at maturation stages V-VI were used for the expression of cloned mRNA encoding GABAA receptor subunits. Oocytes ready for RNA micro-injection were bought from Ecocyte, Castrop-Rauxel, Germany and stored in modified Barth's medium (composition in mM: NaCl 88, KCl 1, NaHCO3 2.4, HEPES 10, MgSO4 0.82, CaNO3 0.33, CaCl2 0.33, pH=7.5) at 20° C. until the experiment.
Oocytes were plated in 96-well plates for microinjection using the Roboinject automated instrument (MultiChannelSystems, Reutlingen, Germany). Approximately 50 nL of an aqueous solution containing the RNA transcripts for the subunits of the desired GABAA receptor subtype was injected into each oocyte. […] Oocytes were kept in modified Barth's medium (composition in mM: NaCl 88, KCl 1, NaHCO3 […], HEPES 10, MgSO4 0.82, CaNO3 0.33, CaCl2 0.33, pH=7.5) at 20° C. until the experiment.
Electrophysiological experiments were performed using the Roboocyte instrument (MultiChannelSystems, Reutlingen, Germany) on days 3 to 5 after the micro-injection of mRNA. During the experiment the oocytes were constantly superfused by a solution containing (in mM) NaCl 90, KCl 1, HEPES 5, MgCl2 1, CaCl2 1 (pH 7.4). Oocytes were impaled by two glass microelectrodes (resistance: 0.5-0.8 MΩ) which were filled with a solution containing KCl 1M+K-acetate 1.5 M and voltage-clamped to −80 mV. The recordings were performed at room temperature using the Roboocyte two-electrode voltage clamp system (Multichannelsystem). After an initial equilibration period of 1.5 min GABA was added for 1.5 min at a concentration evoking approximately 20% of a maximal current response (EC20). After another rest interval of 2.5 min GABA was again added evoking a response of similar amplitude and shape. […] Current traces were recorded at a digitization rate of 10 Hz during and shortly before and after the GABA application.
Each compound and concentration was tested on at least 3 oocytes. Different oocytes were used for different compound concentrations.
For the analysis, the digitized current traces of the first and second GABA response were superimposed and, if necessary, rescaled to equal maximal amplitudes. The ratio between the two responses during the time interval of test compound application was calculated point by point. The extremum of the resulting “ratio trace” was taken as the efficacy (“Fold increase”) of the compound expressed as “% modulation of GABA EC20” (100*(Fold increase−1)).

[2] = target: human GABAA α2β2γ1 receptor (Homo sapiens (Human), UniProt P47869+Q8N1C3); experiment: Binding assay, competition for [^3H]RO7239181, membranes from HEK293F cells
Protocol: (§1) Harvested pellets from HEK293F cells expressing the different GABAA receptor subtypes were resuspended in Mannitol Buffer pH 7.2-7.4 (Mannitol 0.29M, Triethylamine 10 mM, Acetic acid 10 mM, EDTA 1 mM plus protease inhibitors (20 tablets Complete, Roche Diagnostics Cat. No. 05 056 489 001 per liter)), washed two times and then resuspended at 1:10 to 1:15 dilution in the same buffer. Cell disruption was performed by stirring the suspension in a Parr vessel #4637 at 435 psi for 15 minutes, and then the suspensions were centrifuged at 1000×g for 15 minutes at 4° C. (Beckman Avanti J-HC; rotor JS-4.2). The supernatant (S1) was transferred in a 2 l Schott flask and the pellet (P1) was resuspended with Mannitol Buffer up to 175 ml. The resuspended pellet was transferred into a 250 ml Corning centrifugal beaker and centrifuged at 1500×g for 10 minutes at 4° C. (Beckman Avanti J-HC; rotor JS-4.2). The supernatant (S1) was then transferred in the 2 l Schott flask and the pellet was discarded. […] The P2 and P3 protein concentration was determined with the BIORAD Standard assay method with bovine serum albumin as standard and measured on the NANO-Drop 1000. […]
(§2) Membrane homogenates were resuspended and polytronised (Polytron PT1200E Kinematica AG) in Potassium Phosphate 10 mM, KCl 100 mM binding buffer at pH 7.4 to a final assay concentration determined with a previous experiment. […]

[3] = target: human GABAA α1β2γ1 receptor (Homo sapiens (Human), UniProt P14867+Q8N1C3); experiment: as above
Protocol: as §1, §2

GABAA γ1 receptor [4] = target: GABAA γ1 receptor (Mus musculus (Mouse), UniProt Q9R0Y8); experiment: In vitro autoradiography, coronal brain sections of GABAA γ1 knockout and wild-type mice; assay type: binding; settings: 0.3 nM radioligand, 30 minutes room temperature, knockout vs wild-type mouse brain sections
Chain of GABAA γ1 receptor (Mus musculus (Mouse), UniProt Q9R0Y8) (Q9R0Y8 36-465 limits assumed): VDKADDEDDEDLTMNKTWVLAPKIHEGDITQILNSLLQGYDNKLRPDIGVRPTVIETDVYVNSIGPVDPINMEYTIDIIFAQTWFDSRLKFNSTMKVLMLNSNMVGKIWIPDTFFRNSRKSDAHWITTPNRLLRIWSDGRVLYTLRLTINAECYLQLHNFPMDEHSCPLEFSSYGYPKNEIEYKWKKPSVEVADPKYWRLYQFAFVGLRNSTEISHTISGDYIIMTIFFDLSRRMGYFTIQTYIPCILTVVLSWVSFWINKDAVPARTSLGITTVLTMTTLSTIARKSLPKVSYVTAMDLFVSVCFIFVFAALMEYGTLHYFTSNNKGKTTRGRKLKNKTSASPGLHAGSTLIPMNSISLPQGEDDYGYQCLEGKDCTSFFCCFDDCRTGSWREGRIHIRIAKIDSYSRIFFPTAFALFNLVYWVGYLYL
Protocol: Autoradiographical analyses of [^3H]-(I) and [^3H]-(II) were performed with coronal brain sections from GABAA γ1 receptor knockout mice (C57BL/6NTac-Gabrg1) and wild-type controls. Tissue sections (10 μm) were cut in a cryostat, thaw-mounted on microscope glass slides and incubated in incubation buffer (50 mM Tris-HCl, pH 7.4) containing 0.3 nM radioligand (molar activity 83 Ci/mmol and 81 Ci/mmol for [^3H]-(II) and [^3H]-(I), respectively) at room temperature for 30 minutes. After incubation, all sections were rinsed three times in ice-cold wash buffer (50 mM Tris-HCl, pH 7.4) for 10 minutes and dipped three times in distilled water at 4° C. Slide-mounted brain sections were dried in a ventilated fridge for at least 2 hours and exposed to a Fuji Imaging Plate for 5 days. The imaging plate was scanned at a resolution of 25 μm in a Fujifilm high-resolution plate scanner. Visualization and quantification of autoradiographies was performed by the MCID™ image analysis program.

GABAA γ1 receptor [5] = experiment: In vivo PET scans in baboons, regional time-activity curves; parameters: species or system papio anubis olive brown baboons; settings: baboon, intravenous bolus approx. 700 MBq, 90 min scan
Protocol: PET imaging experiments were performed in male papio anubis olive brown baboons to examine the characteristics of [^11C]-(I) and [^11C]-(II) in vivo. The final radiotracer product was radiochemically pure (>95%) up to 40 min post its end of synthesis with an average final calculated specific activity of >555 GBq/μmol. The PET camera used was the Siemens HRRT with an in-plane field-of-view (FOV) of 30 cm and an axial FOV of 24 cm. Each dynamic PET scan started with an intravenous bolus injection of the radiotracer (approx. 700 MBq) and continued for 90 min in a 3D list mode. A set of volumes of interest (VOIs) for 16 brain regions were defined on MRIs of individual animals referring to a standard VOI template. VOIs were transferred to PET space using the coregistration parameters to generate time-activity curves (TACs) of brain regions.

CN1C(=O)CN=C(c2cc(O)ccc2F)c2c1ccc(Cl)c2Cl [Example 1, 6,7-dichloro-5-(2-fluoro-5-hydroxy-phenyl)-1-methyl-3H-1,4-benzodiazepin-2-one]
γ2/γ1 Selectivity Ratio [1]: 12.7 | Efficacy (GABA)% (h-GABA-A α2β2γ1 receptor): 90%

Cc1ccc2c(c1Cl)C(c1cc(O)ccc1F)=NCC(=O)N2C [Example 2, 6-chloro-5-(2-fluoro-5-hydroxy-phenyl)-1,7-dimethyl-3H-1,4-benzodiazepin-2-one]
γ2/γ1 Selectivity Ratio [1]: 39.0 | Efficacy (GABA)% (h-GABA-A α2β2γ1 receptor): 70%

CN1C(=O)CN=C(c2ccccc2F)c2cc([N+](=O)[O-])ccc21 [Flunitrazepam]
Potentiation of GABA-induced current in α2β2γ1 expressing oocytes (h-GABA-A α2β2γ1 receptor): ~60%

Cc1ncc2n1-c1ccc(Cl)cc1C(c1ccccc1F)=NC2 [Midazolam]
Potentiation of GABA-induced current in α2β2γ1 expressing oocytes (h-GABA-A α2β2γ1 receptor): ~60%

CN1C(=O)CN=C(c2cc(O)ccc2Cl)c2cc(Cl)ccc21 [RE-A, reference compound]
Ki [1]: 1.5 nM | γ2/γ1 Selectivity Ratio [1]: 0.54 | Ki [2]: 2.79 nM | Ki [3]: 6.84 nM

Cc1nnc2n1-c1ccc(Cl)cc1C(c1ccccc1Cl)=NC2 [Triazolam]
Potentiation of GABA-induced current in α2β2γ1 expressing oocytes (h-GABA-A α2β2γ1 receptor): ~60%

[3H]C([3H])([3H])N1C(=O)CN=C(c2cc(O)ccc2F)c2c1ccc(Cl)c2Cl [[^3H]-(I), 6,7-Dichloro-5-(2-fluoro-5-hydroxy-phenyl)-1-([^3H3]methyl)-3H-1,4-benzodiazepin-2-one]
Specific binding in the amygdala (GABAA γ1 receptor [4]): 65%

[3H]C([3H])([3H])N1C(=O)CN=C(c2cc(O)ccc2F)c2c1ccc(C)c2Cl [[^3H]-(II), 6-Chloro-5-(2-fluoro-5-hydroxy-phenyl)-7-methyl-1-([^3H3]methyl)-3H-1,4-benzodiazepin-2-one]
Specific binding in the amygdala (GABAA γ1 receptor [4]): 97%

[11CH3]N1C(=O)CN=C(c2cc(O)ccc2F)c2c1ccc(Cl)c2Cl [[^11C]-(I), [^11C]6,7-Dichloro-5-(2-fluoro-5-hydroxy-phenyl)-1-methyl-3H-1,4-benzodiazepin-2-one]
Brain clearance (GABAA γ1 receptor [5]): Slower clearance

Cc1ccc2c(c1Cl)C(c1cc(O)ccc1F)=NCC(=O)N2[11CH3] [[^11C]-(II), [^11C]6-Chloro-5-(2-fluoro-5-hydroxy-phenyl)-1,7-dimethyl-3H-1,4-benzodiazepin-2-one]
Time of brain uptake peaks (GABAA γ1 receptor [5]; comparison of tracers): earlier peaks than [^11C]-(I)
